The values that follow are results of earlier work, collected in US20180311347A1, “POLYMORPHISMS IN CACHEXIA PREDICT CLINICAL OUTCOMES OF COLORECTAL CANCER PATIENTS RECEIVING IRINOTECAN AND BEVACIZUMAB” (University of Southern California, priority 2017, published 2018).

For this data set, the system named is type I activin like receptor.

With `NC(=O)c1ccc(-c2nc(-c3ccc4c(c3)OCO4)c(-c3ccccn3)[nH]2)cc1` [SB431542], the VEGF expression entry is recorded as “decrease VEGF expression” and the angiogenesis result was “inhibit angiogenesis”.
